According to US10512630B2, “Compositions and methods for treating cancer” (The Regents Of The University Of California, priority 2015, dated 2019):

Columns and labels:
[1] = test system: MDA-MB-231 triple-negative breast cancer cells; assay: Proliferation of MDA-MB-231 triple-negative breast cancer cells in vitro; format: cell-based, human; conditions: for Cell proliferation (% control) as a function of parthenolide analog dose (10 uM). / Cell proliferation (% control) as a function of parthenolide analog dose (50 uM).: MDA-MB-231 cells, data corresponds to FIG. 5; for Antitumor effects compared with dimethylamino-parthenolide (DMAPT): MDA-MB-231, doses 0-50 micromolar, most notable at 10 micromolar, FIG. 2
Protocol: FIG. 2: Parthenolides inhibit proliferation of MDAMB231 triple negative breast cancer cells. Parthenolide analogues JD211-JD216 were tested for antitumor activity using triple-negative breast cancer cells (MDA-MB-231) in vitro. Doses ranged from 0-50 micromolar and tumor cell proliferation was assessed using established methods. […] This was most notable at lower compound dose at 10 micromolar. These findings indicate that novel compounds such as JD213, JD214, JD215 and JD216 are more promising candidates for anticancer therapy then DMAPT because these cancers are more sensitive to compounds other than DMAPT.
Parthenolide analogues JD211-JD216 were tested for antitumor activity using triple-negative breast cancer cells (MDA-MB-231) in vitro. Doses ranged from 0-50 micromolar and tumor cell proliferation was assessed using established methods. […] This was most notable at lower compound dose at 10 micromolar. These findings indicate that novel compounds such as JD213, JD214, JD215 and JD216 are more promising candidates for anticancer therapy then DMAPT because these cancers are more sensitive to compounds other than DMAPT.

[2] = test system: human umbicical vein endothelial cells (HUVEC); assay: Proliferation of human umbilical vein endothelial cells (HUVEC) in vitro; format: cell-based; conditions: dosed at 100-nM or at doses up to 10-uM (not shown); FIG. 6

Row | Structure (SMILES) | Cell proliferation (% control) as a function of parthenolide analog dose (10 uM). [1] [% control] | Cell proliferation (% control) as a function of parthenolide analog dose (50 uM). [1] [% control] | Suppression of MDA-MB-231 cell proliferation ([1]; 100-nM dose (0.1-uM) in vitro, compared to control (P<0.001), FIG. 6) | Antitumor effects compared with dimethylamino-parthenolide (DMAPT) [1] | Effect on proliferation of HUVEC [2]
1 | C/C1=C\CC[C@@]2(C)O[C@H]2[C@H]2OC(=O)[C@@H](CNC(C)(C)C(=O)OCc3ccccc3)[C@@H]2CC1 [JD212, Benzyl 2-((((3R,3aS,10bS,E)-6,9a-dimethyl-2-oxo-2,3,3a,4,5,8,9,9a,10a,10b-decahydrooxir-eno[2′,3′:9,10]cyclodeca[1,2-b]furan-3-yl)methyl)amino)-2-methylpropanoate] | 103.4 | 100.8 |  |  | 
2 | C/C1=C\CC[C@@]2(C)O[C@H]2[C@H]2OC(=O)[C@@H](CNCC(=O)OCc3ccccc3)[C@@H]2CC1 [JD216, Benzyl (((3R,3aS,10bS,E)-6,9a-dimethyl-2-oxo-2,3,3a,4,5,8,9,9a,10a,10b-decahydrooxire-no[2′,3′:9,10]cyclodeca[1,2-b]furan-3-yl)methyl)glycinate] | 0 | 0 | effectively suppress | greater than that observed with dimethylamino-parthenolide (DMAPT) | does not significantly alter
3 | C/C1=C\CC[C@@]2(C)O[C@H]2[C@H]2OC(=O)[C@@H](CN(C)CC(=O)O)[C@@H]2CC1 [JD214, N-(((3R,3aS,10bS,E)-6,9a-Dimethyl-2-oxo-2,3,3a,4,5,8,9,9a,10a,10b-decahydrooxire-no[2′,3′:9,10]cyclodeca[1,2-b]furan-3-yl)methyl)-N-methylglycine] | 40.0 | 16.6 |  | greater than that observed with dimethylamino-parthenolide (DMAPT) | 
4 | C/C1=C\CC[C@@]2(C)O[C@H]2[C@H]2OC(=O)[C@@H](CNCC(=O)O)[C@@H]2CC1 [JD211, (((3R,3aS,1bS,E)-6,9a-dimethyl-2-oxo-2,3,3a,4,5,8,9,9a,10a,10b-decahydrooxire-no[2′,3′:9,10]cyclodeca[1,2-b]furan-3-yl)methyl)glycine] | 106.0 | 105.8 |  |  | 
5 | C/C1=C\CC[C@@]2(C)O[C@H]2[C@H]2OC(=O)[C@@H](CNC(C)(C)C(=O)O)[C@@H]2CC1 [JD215, 2-((((3R,3aS,10bS,E)-6,9a-Dimethyl-2-oxo-2,3,3a,4,5,8,9,9a,10a,10b-decahydrooxire-no[2′,3′:9,10]cyclodeca[1,2-b]furan-3-yl)methyl)amino)-2-methylpropanoic acid] | 59.5 | 0 |  | greater than that observed with dimethylamino-parthenolide (DMAPT) | 
6 | C/C1=C\CC[C@@]2(C)O[C@H]2[C@H]2OC(=O)[C@@H](CN(C)CC(=O)OCc3ccccc3)[C@@H]2CC1 [JD213, Benzyl N-(((3R,3aS,10bS,E)-6,9a-dimethyl-2-oxo-2,3,3a,4,5,8,9,9a,10a,10b-decahydrooxire-no[2′,3′:9,10]cyclodeca[1,2-b]furan-3-yl)methyl)-N-methylglycinate] | 26.7 | 0.4 |  | greater than that observed with dimethylamino-parthenolide (DMAPT) | 
